Reference: the OligoGym collection
Several values for one entry are separate records, joined by “and”; a condition that tells them apart may be missing. Equal values may be shown once. After the bases stand the sugars from the 5' end (letter, count) and the backbone: PS all phosphorothioate, else s phosphorothioate and o phosphodiester by linkage. Methylation of C is not given here. l = locked nucleic acid (LNA); d = 2'-deoxy (DNA)

Assays:
[1] = molecular target: MYH7; details: ASO, CC-2580, 5 µM
[2] = molecular target: ANGPTL2; details: ASO

Sequence	target mRNA inhibition [1]	target mRNA inhibition ([2]; 5 µM) [%]	target mRNA inhibition ([2]; 25 µM) [%]
CAGCTTGGCGATGATCT (sugars lldlddddddlldddll, PS)	24% and 13%	–	–
CAGCTTGGCGATGATCT (sugars lddlddddlddddddll, PS)	34% and 17%	–	–
CTTGGCAATGATCTCATCC (sugars lddddddlddldlddddll, PS)	45% and 29%	–	–
CTTGGCAATGATCTCATCC (sugars l2 d10 l2 d2 l3, PS)	74% and 49%	–	–
CAGCTTGGCGATGATCT (sugars lldllddddddldddll, PS)	45% and 31%	–	–
TCAGCTTGGCGATGATCT (sugars lddldlddddddldldll, PS)	4% and -7%	–	–
CTTGGCAATGATCTCATCC (sugars llddlddddddldldldll, PS)	-25% and -43%	–	–
CTTGGCAATGATCTCATCC (sugars ldddddllldddddlddll, PS)	29% and 20%	–	–
CAGCTTGGCGATGATCT (sugars lldddddldddldldll, PS)	20% and 15%	–	–
CTTGGCAATGATCTCATCC (sugars lldlddddddddlddldll, PS)	38% and 23%	–	–
TCAGCTTGGCGATGATCT (sugars lddldddddddldlddll, PS)	37% and 32%	–	–
CAGCTTGGCGATGATCT (sugars lllddlddddddlddll, PS)	25% and 0%	–	–
CTTGGCAATGATCTCATCC (sugars l2 d1 l1 d11 l4, PS)	81% and 60%	–	–
CAGCTTGGCGATGATCT (sugars lddlddddddlddllll, PS)	29% and 23%	–	–
CAGCTTGGCGATGATCT (sugars lddlldddddddlldll, PS)	38% and 22%	–	–
CTTGGCAATGATCTCATCC (sugars ldddldddddddlddldll, PS)	22% and 3%	–	–
CTTGGCAATGATCTCATCC (sugars ldddddlddlddlddldll, PS)	-6% and -21%	–	–
CTTGGCAATGATCTCATCC (sugars lldddddddlddddldlll, PS)	67% and 43%	–	–
CAGCTTGGCGATGATCT (sugars ldldldddddddlddll, PS)	21% and 3%	–	–
TCAGCTTGGCGATGATCT (sugars l2 d8 l1 d4 l3, PS)	39% and 27%	–	–
CAGCTTGGCGATGATCT (sugars lddlldddlldddddll, PS)	36% and 19%	–	–
CAGCTTGGCGATGATCT (sugars lddldddddddllddll, PS)	-2% and -12%	–	–

Sequence	target mRNA inhibition [1]	target mRNA inhibition ([2]; 5 µM) [%]	target mRNA inhibition ([2]; 25 µM) [%]
CAGCTTGGCGATGATCT (sugars l3 d2 l1 d9 l2, PS)	75% and 59%	–	–
CTTGGCAATGATCTCATCC (sugars ldldlddddddlddlddll, PS)	-4% and -29%	–	–
CAGCTTGGCGATGATCT (sugars lddlddddlldddddll, PS)	0% and -24%	–	–
CTTGGCAATGATCTCATCC (sugars ldddddddlddldldldll, PS)	37% and 12%	–	–
TCAGCTTGGCGATGATCT (sugars l2 d10 l1 d2 l3, PS)	67% and 55%	–	–
TCAGCTTGGCGATGATCT (sugars lddldllddlddddddll, PS)	16% and -2%	–	–
TCAGCTTGGCGATGATCT (sugars ldlddlddddddldldll, PS)	-25% and -42%	–	–
TTGATGATGCGGTTGTAGG (sugars l1 d16 l2, PS)	–	44.8	55.9
TCAGCTTGGCGATGATCT (sugars l2 d5 l1 d6 l4, PS)	72% and 49%	–	–
CTTGGCAATGATCTCATCC (sugars ldddddllddddldlddll, PS)	67% and 52%	–	–
CTTGGCAATGATCTCATCC (sugars lddddddlddlldldldll, PS)	18% and -7%	–	–
CAGCTTGGCGATGATCT (sugars l1 d2 l1 d11 l2, PS)	27% and 2%	–	–
CAGCTTGGCGATGATCT (sugars l2 d9 l1 d3 l2, PS)	60% and 37%	–	–
ACTTCTATTCTTGGACC (sugars l2 d13 l2, PS)	–	47.8	55.7
CTTGGCAATGATCTCATCC (sugars lddldddddddldllddll, PS)	56% and 39%	–	–
TCAGCTTGGCGATGATCT (sugars lddldlldlddddddlll, PS)	36% and 34%	–	–
TGATGTGGTGAGACAGTA (sugars l2 d14 l2, PS)	–	53.6	70.5
ACCATTTTGAGATTCCC (sugars l2 d13 l2, PS)	–	30	24.7
TCTCCTAAGAGCAAAGCT (sugars l2 d14 l2, PS)	–	37.2	52.9
TGAATGGAAGATACAAAACT (sugars l4 d12 l4, PS)	–	11.6	44.7
TTCTCCTAGAAAGCAGT (sugars l1 d12 l4, PS)	–	43	61.9
GTGCTCTGTGAAGATTA (sugars l2 d11 l4, PS)	–	66.6	81.3

Sequence	target mRNA inhibition [1]	target mRNA inhibition ([2]; 5 µM) [%]	target mRNA inhibition ([2]; 25 µM) [%]
GATGATGCGGTTGTAGGT (sugars l1 d15 l2, PS)	–	62.4	73
GTTCTCCAGGGAAGTGTA (sugars l1 d15 l2, PS)	–	47.4	57.7
CCACACCCAACATTTTA (sugars l2 d13 l2, PS)	–	56.8	63
GCAGCTCATTGTTGAGCA (sugars l1 d15 l2, PS)	–	-2.7	-0.5
ACATGTATATTATGAAGGTA (sugars l4 d14 l2, PS)	–	18.1	8.64
GTAGGTAGGCGAGGAG (sugars l2 d12 l2, PS)	–	16.3	-18.7
AATTTACAGTTCTTTGTC (sugars l4 d10 l4, PS)	–	78.2	83.3
CCAGTTCCTGAAGAAGTTA (sugars l1 d15 l3, PS)	–	27.8	30.1
GAACTCAGCCCAGTAGAC (sugars l1 d15 l2, PS)	–	-4.7	17.5
CTAGGCACTCAATCCCA (sugars l1 d14 l2, PS)	–	21.9	31.5
TGGTTGATGATGCGGTT (sugars l2 d13 l2, PS)	–	81.7	87.5
AAGCATCATTGAAAATTC (sugars l4 d10 l4, PS)	–	75.9	85.1
ATTTTGAGATTCCCCCAAAG (sugars l1 d17 l2, PS)	–	10.8	2.99
GCTTGCGGATGATCTC (sugars l2 d12 l2, PS)	–	38	70.9
ATGATGCGGTTGTAGG (sugars l2 d11 l3, PS)	–	69.8	81.1
TGATGATGCGGTTGTAGGT (sugars l1 d16 l2, PS)	–	45.5	63.9
TTACATGCCGCCAGAGGAA (sugars l1 d16 l2, PS)	–	45.6	52.3
CCAACCATAAATTAATTG (sugars l4 d10 l4, PS)	–	61.8	74.5
TGATGATGCGGTTGTA (sugars l3 d11 l2, PS)	–	73.8	85.9
CAGGCCAACACTAACTCGG (sugars l1 d16 l2, PS)	–	49	57
